The results in this text go back to patent US7709637B2, “5-phenylpyrimidines, their preparation, intermediates for their preparation, and their use for controlling harmful fungi” (BASF SE, priority 2001, dated 2010).

Each structure is given as a SMILES string.

One may read the melting point as the temperature of the solid-liquid transition.

Assay in one data set: not given
Details: not given
The molecule `C[C@H](Nc1nc(-n2cccn2)nc(Cl)c1-c1c(F)cc(F)cc1F)C(F)(F)F` [I-2, (S)-6-Chloro-4-(2,2,2-trifluoro-1-methylethyl)amino-5-(2,4,6-trifluorophenyl)-2-(1-pyrazolyl)pyrimidine] came in with a melting point of 209 °C.

For `C[C@H](Nc1nc(-n2cncn2)nc(Cl)c1-c1c(F)cc(F)cc1F)C(F)(F)F` [I-4, (S)-6-Chloro-4-(2,2,2-trifluoro-1-methylethyl)amino-5-(2,4,6-trifluorophenyl)-2-(1,2,4-triazol-1-yl)pyrimidine], the melting point was in the range of 176 to 177 °C.

`C[C@H](Nc1nc(-n2ccnc2)nc(Cl)c1-c1c(F)cc(F)cc1F)C(F)(F)F` [I-3, (S)-6-Chloro-4-(2,2,2-trifluoro-1-methylethyl)amino-5-(2,4,6-trifluorophenyl)-2-(1-imidazolyl)pyrimidine] registered a melting point of 172 to 173 °C.

Another data set in a line: Lipophilicity parameter logPow by RP-HPLC run time method (OECD guideline). Type of data set: physicochemical. The settings on record: C18 stationary phase, methanol/buffer pH 7.4, isocratic. As to the method: The lipophilicity parameters logPow (Table I) were determined as specified by OECD directive test guidelines using the RP-HPLC run time method.
To this end, a logk′/logPow correlation curve based on ten reference substances was plotted and validated with the aid of the lipophilicity parameters of eight comparative substances, which had been established by the extraction method.
A commercially available reversed-phase C18 stationary phase was used as stationary phase. Chromatographic separation was carried out with methanol and a buffer solution as mobile phase at pH 7.4 under isocratic conditions.
The retention times of the standards tR were converted in accordance with equation Φ into the capacity factors k′, where t0, as […] of the solvent unretarded on the reversed-phase C18 stationary phase, represents the dead time of the chromatographic system:
The linear correlation of the logk′ values with the logPow values of the standards published in the appendix to the Directive 92/69/EEC yields the correlation curve through linear regression.
The lipophilicity parameters logPow of the analytes were interpolated from the correlation curve of the standards after calculation of the logarithmic capacity logk′.
The validation of the RP-HPLC analytical method described, and of the standards used, is carried out with the aid of eight comparison active compounds, the distribution behavior of which was determined with the aid of the extraction method.
For `CC(C)Nc1nc(-c2cnccn2)nc(Cl)c1-c1c(F)cc(F)cc1F` [I-18], the logPow entry is “logPow 4.7”.

As for `CC(C)Nc1nc(-c2ncccn2)nc(Cl)c1-c1c(F)cc(F)cc1F` [I-11], the logPow result is on record as “logPow 3.15”.

For `CCN(CC)c1nc(-c2ncccn2)nc(Cl)c1-c1c(F)cccc1Cl` [I-9], the logPow result is “logPow 3.86”.

As to `CCN(CC)c1nc(-c2cnccn2)nc(Cl)c1-c1c(F)cccc1Cl` [I-14], the logPow result was “logPow 4.49”.

Consider `CCN(CC)c1nc(-c2cnccn2)nc(Cl)c1-c1c(F)cc(F)cc1F` [I-20], for which the logPow result is reported as “logPow 4.41”.

Regarding `CC(C)N(C)c1nc(-c2cnccn2)nc(Cl)c1-c1c(F)cc(F)cc1F` [I-21], the logPow result was “logPow 4.48”.

Take `CC(C)(C)CNc1nc(-c2cnccn2)nc(Cl)c1-c1c(F)cc(F)cc1F` [I-22]: the logPow result was “logPow 4.72”.
